Reference: patent US6339042B1, “Herbicidal N-cyclohexadienyl heteroaryloxyacetamides” (American Cyanamid Co., priority 1999, dated 2002)

Columns and labels:
Conditions in all cases: three weeks after treatment
Hordeum vulgare [1] = assay: Post-emergence herbicidal evaluation, HORVW
Procedure: (§2) Each pot is examined three weeks after treatment and phytotoxicity is assessed according to the rating system set forth below.
(§3) These acetone solutions are diluted with water and the resulting formulations applied at dosage levels equivalent of about 0.4 to 0.1 kg per hectare of test compound per pot. After spraying the plants are placed on greenhouse benches and are cared for in the usual manner, commensurate with conventional greenhouse practices.

Triticum aestivum [2] = assay: Post-emergence herbicidal evaluation, TRZAW
Echinochloa crus-galli [3] = assay: Post-emergence herbicidal evaluation, ECHCG
Alopecurus myosuroides [4] = assay: Pre-emergence herbicidal evaluation, ALOMY; assay type: in vivo
Source text: (§1) The treated pots are then placed on greenhouse benches, watered and cared for in accordance with conventional greenhouse procedures.

Lolium perenne [5] = assay: Post-emergence herbicidal evaluation, LOLPE
Oryza sativum [6] = assay: Post-emergence herbicidal evaluation, ORYSA
Alopecurus myosuroides [7] = assay: Post-emergence herbicidal evaluation, ALOMY
Zea mays [8] = assay: Pre-emergence herbicidal evaluation, ZEAMX; assay type: in vivo
Source text: as §1

Glycine max [9] = assay: Pre-emergence herbicidal evaluation, GLXMA; assay type: in vivo
Source text: as §1

Setaria viridis [10] = assay: Pre-emergence herbicidal evaluation, SETVI; assay type: in vivo
Source text: as §1

Amaranthus tuberculatus [11] = assay: Pre-emergence herbicidal evaluation, AMATA; assay type: in vivo
Source text: as §1

Glycine max [12] = assay: Post-emergence herbicidal evaluation, GLXMA
Galium aparine [13] = assay: Pre-emergence herbicidal evaluation, GALAP; assay type: in vivo
Source text: as §1

Echinochloa crus-galli [14] = assay: Pre-emergence herbicidal evaluation, ECHCG; assay type: in vivo
Source text: as §1

Zea mays [15] = assay: Post-emergence herbicidal evaluation, ZEAMX
Procedure: as §2, §3

Hordeum vulgare [16] = assay: Pre-emergence herbicidal evaluation, HORVW; assay type: in vivo
Source text: as §1

Lolium perenne [17] = assay: Pre-emergence herbicidal evaluation, LOLPE; assay type: in vivo
Source text: as §1

Triticum aestivum [18] = assay: Pre-emergence herbicidal evaluation, TRZAW; assay type: in vivo
Source text: as §1

Amaranthus tuberculatus [19] = assay: Post-emergence herbicidal evaluation, AMATA; assay type: in vivo
Apera spica venti [20] = assay: Pre-emergence herbicidal evaluation, APESV; assay type: in vivo
Source text: as §1

Apera spica venti [21] = assay: Post-emergence herbicidal evaluation, APESV
Galium aparine [22] = assay: Post-emergence herbicidal evaluation, GALAP
Oryza sativum [23] = assay: Pre-emergence herbicidal evaluation, ORYSA; assay type: in vivo
Source text: as §1

Setaria viridis [24] = assay: Post-emergence herbicidal evaluation, SETVI

In the case of CC1=CC(N(C(=O)COc2nc3ccccc3o2)C(C)C)=CC(C)(C)C1 [Example 17], the “phytotoxicity rating HORVW” value (Hordeum vulgare [1]; 0.100 kg/ha) is reported as 0 (0 - No effect), the “phytotoxicity rating HORVW” value (Hordeum vulgare [1]; 0.200 kg/ha) is reported as 0 (0 - No effect) and the “phytotoxicity rating HORVW” value (Hordeum vulgare [1]; 0.400 kg/ha) is reported as 0 (0 - No effect). The “phytotoxicity rating TRZAW” value (Triticum aestivum [2]; 0.100 kg/ha) was 0 (0 - No effect), the “phytotoxicity rating TRZAW” value (Triticum aestivum [2]; 0.200 kg/ha) was 1 (1 - Trace effect) and the “phytotoxicity rating TRZAW” value (Triticum aestivum [2]; 0.400 kg/ha) was 2 (2 - Slight effect). For the same compound, the “phytotoxicity rating ECHCG” value (Echinochloa crus-galli [3]; 0.100 kg/ha) was 3 (3 - Moderate effect), the “phytotoxicity rating ECHCG” value (Echinochloa crus-galli [3]; 0.200 kg/ha) was 4 (4 - Injury) and the “phytotoxicity rating ECHCG” value (Echinochloa crus-galli [3]; 0.400 kg/ha) was 6 (6 - Herbicidal effect). The “phytotoxicity rating ALOMY” value (Alopecurus myosuroides [4]; 0.100 kg/ha) was 3 (3 - Moderate effect), the “phytotoxicity rating ALOMY” value (Alopecurus myosuroides [4]; 0.200 kg/ha) was 6 (6 - Herbicidal effect) and the “phytotoxicity rating ALOMY” value (Alopecurus myosuroides [4]; 0.400 kg/ha) was 6 (6 - Herbicidal effect). For the same compound, the “phytotoxicity rating ALOMY” value (Alopecurus myosuroides [4]; 0.800 kg/ha) was 9 (9 - Complete kill), the “phytotoxicity rating LOLPE” value (Lolium perenne [5]; 0.100 kg/ha) was 4 (4 - Injury) and the “phytotoxicity rating LOLPE” value (Lolium perenne [5]; 0.200 kg/ha) was 7 (7 - Good herbicidal effect). The “phytotoxicity rating LOLPE” value (Lolium perenne [5]; 0.400 kg/ha) was 8 (8 - Approaching complete kill), the “phytotoxicity rating ORYSA” value (Oryza sativum [6]; 0.100 kg/ha) was 0 (0 - No effect) and the “phytotoxicity rating ORYSA” value (Oryza sativum [6]; 0.200 kg/ha) was 3 (3 - Moderate effect). For the same compound, the “phytotoxicity rating ORYSA” value (Oryza sativum [6]; 0.400 kg/ha) was 4 (4 - Injury), the “phytotoxicity rating ALOMY” value (Alopecurus myosuroides [7]; 0.100 kg/ha) was 3 (3 - Moderate effect) and the “phytotoxicity rating ALOMY” value (Alopecurus myosuroides [7]; 0.200 kg/ha) was 6 (6 - Herbicidal effect). For the same compound, the “phytotoxicity rating ALOMY” value (Alopecurus myosuroides [7]; 0.400 kg/ha) was 8 (8 - Approaching complete kill), the “phytotoxicity rating ZEAMX” value (Zea mays [8]; 0.100 kg/ha) was 0 (0 - No effect) and the “phytotoxicity rating ZEAMX” value (Zea mays [8]; 0.200 kg/ha) was 0 (0 - No effect). For the same compound, the “phytotoxicity rating ZEAMX” value (Zea mays [8]; 0.400 kg/ha) was 1 (1 - Trace effect), the “phytotoxicity rating ZEAMX” value (Zea mays [8]; 0.800 kg/ha) was 3 (3 - Moderate effect) and the “phytotoxicity rating GLXMA” value (Glycine max [9]; 0.100 kg/ha) was 0 (0 - No effect). For the same compound, the “phytotoxicity rating GLXMA” value (Glycine max [9]; 0.200 kg/ha) was 0 (0 - No effect), the “phytotoxicity rating GLXMA” value (Glycine max [9]; 0.400 kg/ha) was 0 (0 - No effect) and the “phytotoxicity rating GLXMA” value (Glycine max [9]; 0.800 kg/ha) was 1 (1 - Trace effect). The “phytotoxicity rating SETVI” value (Setaria viridis [10]; 0.100 kg/ha) was 3 (3 - Moderate effect), the “phytotoxicity rating SETVI” value (Setaria viridis [10]; 0.200 kg/ha) was 5 (5 - Definite injury) and the “phytotoxicity rating SETVI” value (Setaria viridis [10]; 0.400 kg/ha) was 8 (8 - Approaching complete kill). For the same compound, the “phytotoxicity rating SETVI” value (Setaria viridis [10]; 0.800 kg/ha) was 8 (8 - Approaching complete kill), the “phytotoxicity rating AMATA” value (Amaranthus tuberculatus [11]; 0.100 kg/ha) was 4 (4 - Injury) and the “phytotoxicity rating AMATA” value (Amaranthus tuberculatus [11]; 0.200 kg/ha) was 5 (5 - Definite injury). The “phytotoxicity rating AMATA” value (Amaranthus tuberculatus [11]; 0.400 kg/ha) was 5 (5 - Definite injury), the “phytotoxicity rating AMATA” value (Amaranthus tuberculatus [11]; 0.800 kg/ha) was 9 (9 - Complete kill) and the “phytotoxicity rating GLXMA” value (Glycine max [12]; 0.100 kg/ha) was 3 (3 - Moderate effect). For the same compound, the “phytotoxicity rating GLXMA” value (Glycine max [12]; 0.200 kg/ha) was 3 (3 - Moderate effect), the “phytotoxicity rating GLXMA” value (Glycine max [12]; 0.400 kg/ha) was 6 (6 - Herbicidal effect) and the “phytotoxicity rating GALAP” value (Galium aparine [13]; 0.100 kg/ha) was 0 (0 - No effect). The “phytotoxicity rating GALAP” value (Galium aparine [13]; 0.200 kg/ha) was 0 (0 - No effect), the “phytotoxicity rating GALAP” value (Galium aparine [13]; 0.400 kg/ha) was 0 (0 - No effect) and the “phytotoxicity rating GALAP” value (Galium aparine [13]; 0.800 kg/ha) was 0 (0 - No effect). For the same compound, the “phytotoxicity rating ECHCG” value (Echinochloa crus-galli [14]; 0.100 kg/ha) was 4 (4 - Injury), the “phytotoxicity rating ECHCG” value (Echinochloa crus-galli [14]; 0.200 kg/ha) was 6 (6 - Herbicidal effect) and the “phytotoxicity rating ECHCG” value (Echinochloa crus-galli [14]; 0.400 kg/ha) was 7 (7 - Good herbicidal effect). For the same compound, the “phytotoxicity rating ECHCG” value (Echinochloa crus-galli [14]; 0.800 kg/ha) was 9 (9 - Complete kill), the “phytotoxicity rating ZEAMX” value (Zea mays [15]; 0.100 kg/ha) was 0 (0 - No effect) and the “phytotoxicity rating ZEAMX” value (Zea mays [15]; 0.200 kg/ha) was 0 (0 - No effect). The “phytotoxicity rating ZEAMX” value (Zea mays [15]; 0.400 kg/ha) was 1 (1 - Trace effect), the “phytotoxicity rating HORVW” value (Hordeum vulgare [16]; 0.100 kg/ha) was 1 (1 - Trace effect) and the “phytotoxicity rating HORVW” value (Hordeum vulgare [16]; 0.200 kg/ha) was 2 (2 - Slight effect). For the same compound, the “phytotoxicity rating HORVW” value (Hordeum vulgare [16]; 0.400 kg/ha) was 2 (2 - Slight effect), the “phytotoxicity rating HORVW” value (Hordeum vulgare [16]; 0.800 kg/ha) was 4 (4 - Injury) and the “phytotoxicity rating LOLPE” value (Lolium perenne [17]; 0.100 kg/ha) was 5 (5 - Definite injury). The “phytotoxicity rating LOLPE” value (Lolium perenne [17]; 0.200 kg/ha) was 9 (9 - Complete kill), the “phytotoxicity rating LOLPE” value (Lolium perenne [17]; 0.400 kg/ha) was 9 (9 - Complete kill) and the “phytotoxicity rating LOLPE” value (Lolium perenne [17]; 0.800 kg/ha) was 9 (9 - Complete kill). For the same compound, the “phytotoxicity rating TRZAW” value (Triticum aestivum [18]; 0.100 kg/ha) was 1 (1 - Trace effect), the “phytotoxicity rating TRZAW” value (Triticum aestivum [18]; 0.200 kg/ha) was 2 (2 - Slight effect) and the “phytotoxicity rating TRZAW” value (Triticum aestivum [18]; 0.400 kg/ha) was 2 (2 - Slight effect). The “phytotoxicity rating TRZAW” value (Triticum aestivum [18]; 0.800 kg/ha) was 4 (4 - Injury), the “phytotoxicity rating AMATA” value (Amaranthus tuberculatus [19]; 0.100 kg/ha) was 3 (3 - Moderate effect) and the “phytotoxicity rating AMATA” value (Amaranthus tuberculatus [19]; 0.200 kg/ha) was 4 (4 - Injury). For the same compound, the “phytotoxicity rating AMATA” value (Amaranthus tuberculatus [19]; 0.400 kg/ha) was 5 (5 - Definite injury), the “phytotoxicity rating APESV” value (Apera spica venti [20]; 0.100 kg/ha) was 7 (7 - Good herbicidal effect) and the “phytotoxicity rating APESV” value (Apera spica venti [20]; 0.200 kg/ha) was 8 (8 - Approaching complete kill). For the same compound, the “phytotoxicity rating APESV” value (Apera spica venti [20]; 0.400 kg/ha) was 9 (9 - Complete kill), the “phytotoxicity rating APESV” value (Apera spica venti [20]; 0.800 kg/ha) was 9 (9 - Complete kill) and the “phytotoxicity rating APESV” value (Apera spica venti [21]; 0.100 kg/ha) was 6 (6 - Herbicidal effect). For the same compound, the “phytotoxicity rating APESV” value (Apera spica venti [21]; 0.200 kg/ha) was 8 (8 - Approaching complete kill), the “phytotoxicity rating APESV” value (Apera spica venti [21]; 0.400 kg/ha) was 8 (8 - Approaching complete kill) and the “phytotoxicity rating GALAP” value (Galium aparine [22]; 0.100 kg/ha) was 1 (1 - Trace effect). The “phytotoxicity rating GALAP” value (Galium aparine [22]; 0.200 kg/ha) was 3 (3 - Moderate effect), the “phytotoxicity rating GALAP” value (Galium aparine [22]; 0.400 kg/ha) was 4 (4 - Injury) and the “phytotoxicity rating ORYSA” value (Oryza sativum [23]; 0.100 kg/ha) was 2 (2 - Slight effect). For the same compound, the “phytotoxicity rating ORYSA” value (Oryza sativum [23]; 0.200 kg/ha) was 3 (3 - Moderate effect), the “phytotoxicity rating ORYSA” value (Oryza sativum [23]; 0.400 kg/ha) was 4 (4 - Injury) and the “phytotoxicity rating ORYSA” value (Oryza sativum [23]; 0.800 kg/ha) was 4 (4 - Injury). For the same compound, the “phytotoxicity rating SETVI” value (Setaria viridis [24]; 0.100 kg/ha) was 5 (5 - Definite injury), the “phytotoxicity rating SETVI” value (Setaria viridis [24]; 0.200 kg/ha) was 6 (6 - Herbicidal effect) and the “phytotoxicity rating SETVI” value (Setaria viridis [24]; 0.400 kg/ha) was 6 (6 - Herbicidal effect).
